Data taken from US9572807B2, “Protocols for treatment of major depressive disorder (MDD)” (NEURALSTEM, INC., priority 2014, dated 2017).

Key:
Type in all cases: in vivo, human
[1] = test system: patients with symptomatic MDD; assay: Overall efficacy assessment in Phase 1B study
Protocol: A double-blind, placebo-controlled, multiple-ascending-dose study employing the compound of formula (1) was performed in patients with symptomatic MDD. Twenty-four subjects were recruited, with their diagnosis and illness severity confirmed through an independent, remote SAFER interview (Targum, S. D., et al., CNS Neurosci. Ther. (2008) 14:2-9) from the Massachusetts General Hospital (MGH) Clinical Trials Network and Institute (CTNI) raters. Each patient underwent a screening for eligibility (Day −37 to Day −6 or −3) and eligible patients were admitted into the unit on Day −5 to complete their wash-out and be reconfirmed for eligibility and for baseline assessments. The patients received daily dosing of formula (1) or placebo for 28 days starting on Day 1 and were followed for safety, pharmacokinetics (PK) and pharmacodynamics (PD) until discharge. At the conclusion of in-house dosing (Day 28), patients remained in the unit for up to 3 additional days, at the psychiatrist's discretion. […]
In this example, the results of the study of Example 1 were evaluated by the efficacy assessments that included the Montgomery-Asberg Depression Rating Scale (MADRS), the Clinician Global Impression-Improvement (CGI-I), the Symptoms of Depression Questionnaire (SDQ) and the Cognitive and Physical Functioning Questionnaire (CPFQ). […]

[2] = test system: patients with symptomatic MDD; assay: Symptoms of Depression Questionnaire (SDQ), Phase 1B study; settings: for Cohen's d value, SDQ (ANCOVA): all test groups (n=18) vs placebo (n=6)
Protocol: (§1) A double-blind, placebo-controlled, multiple-ascending-dose study employing the compound of formula (1) was performed in patients with symptomatic MDD. Twenty-four subjects were recruited, with their diagnosis and illness severity confirmed through an independent, remote SAFER interview (Targum, S. D., et al., CNS Neurosci. Ther. (2008) 14:2-9) from the Massachusetts General Hospital (MGH) Clinical Trials Network and Institute (CTNI) raters. Each patient underwent a screening for eligibility (Day −37 to Day −6 or −3) and eligible patients were admitted into the unit on Day −5 to complete their wash-out and be reconfirmed for eligibility and for baseline assessments. The patients received daily dosing of formula (1) or placebo for 28 days starting on Day 1 and were followed for safety, pharmacokinetics (PK) and pharmacodynamics (PD) until discharge. At the conclusion of in-house dosing (Day 28), patients remained in the unit for up to 3 additional days, at the psychiatrist's discretion. On Day 35 (±3), Day 42 (±3), Day 49 (±3) and Day 70 (±3) outpatient follow-up visits took place. Patients returned to the unit for extensive follow-up on Day 56 (±3) and Day 84 (±3) (End-of-study).
(§2) The subjects were randomized into four groups of 6 patients each to receive 40 mg of formula (1) per dose administered orally in gelatin capsules once daily, twice daily or three times daily to provide 40 or 80 or 120 mg daily of formula (1) or placebo for 28 days. Each cohort included at least 3 female subjects. In this example, qEEG was used to characterize pharmacodynamic effects.
(§3) In this example, the results of the study of Example 1 were evaluated by the efficacy assessments that included the Montgomery-Asberg Depression Rating Scale (MADRS), the Clinician Global Impression-Improvement (CGI-I), the Symptoms of Depression Questionnaire (SDQ) and the Cognitive and Physical Functioning Questionnaire (CPFQ). […] These improvements persisted over time during the follow-up for MADRS, SDQ and CPFQ.
(§4) Baseline values were adjusted for initial differences and the results for the placebo group (n=6) and the tested groups (n=18) were collapsed. The sizes of the effects were estimated as Cohen's d group mean differences where d=0.20 indicates only a small difference, d=0.50 indicates a medium difference and d=0.80 indicates a large difference. Cohen's d values are described in Cohen, J. (1988) Statistical Power Analysis for the Behavioral Sciences (2nd ed.), Lawrence Erlbaum Associates. D values are used when the scale of a dependent variable is not inherently meaningful, the difference between means are considered in standardized units. That is, effect size is measured in terms of the number of standard deviations by which the means differ. Two commonly used measures are Hedges' g and Cohen's d. Both of these measures consist of the difference between means divided by the standard deviation. They differ only in that Hedges' g uses the version of the standard deviation formula in which division is by N−1, whereas Cohen's d uses the version in which division is by N.
(§5) Covariance is a measure of how much two variables change together and how strong the relationship is between them (Lenth, R. V., The American Statistician (2001) 55:187-193). Analysis of covariance (ANCOVA) is a general linear model which blends analysis of variance (ANOVA) and regression. ANCOVA evaluates whether population means of a dependent variable (DV) are equal across levels of a categorical independent variable (IV), while statistically controlling for the effects of other continuous variables that are not of primary interest, known as covariates (CV). Therefore, when performing ANCOVA, the DV means are adjusted to what they would be if all groups were equal on the CV. In the CGI-I assay, Day 7 was used as the baseline value; in the remaining assays, Day 0 was used as baseline.

[3] = test system: patients with symptomatic MDD; assay: Cognitive and Physical Functioning Questionnaire (CPFQ), Phase 1B study; settings: FIG. 4
[4] = test system: patients with symptomatic MDD; assay: Clinician Global Impression-Improvement Scale (CGI-I), Phase 1B study; settings: for Cohen's d value, CGI-I (ANCOVA): all test groups (n=18) vs placebo (n=6), Day 7 as baseline
Protocol: as §1, §2, §3, §4, §5

[5] = Day 14, 1x = 40 mg/day oral (n=6)
[6] = Day 14, 2x = 80 mg/day oral (n=6)
[7] = Day 14, 3x = 120 mg/day oral (n=6)
[8] = Day 14, all three dose groups pooled (n=18)
[9] = Day 56 (follow-up after 28 days dosing), 1x = 40 mg/day oral
[10] = Day 56 (follow-up after 28 days dosing), 2x = 80 mg/day oral
[11] = Day 56 (follow-up after 28 days dosing), 3x = 120 mg/day oral
[12] = Day 56 (follow-up after 28 days dosing), all three dose groups pooled (n=18)
[13] = Day 84 (follow-up after 28 days dosing), 1x = 40 mg/day oral
[14] = Day 84 (follow-up after 28 days dosing), 2x = 80 mg/day oral
[15] = Day 84 (follow-up after 28 days dosing), 3x = 120 mg/day oral
[16] = Day 84 (follow-up after 28 days dosing), all three dose groups pooled

Compound: CC(C)CCNc1ncccc1C(=O)N1CCN(Cc2ccccc2)CC1 [formula (1)]
- Depressive and cognitive symptoms across all measures ([1]; Day 28, two lower doses (40 mg/day and 80 mg/day)): clinically meaningful reduction in depressive and cognitive symptoms across all measures
- Effect on condition of patients, further analysis ([1]; highest dose (120 mg/day)): effective in improving the condition of these patients
- SDQ score ([2]; 40 mg/day, FIG. 3, placebo (n=2) 3.1): 2.5
- SDQ score ([2]; 80 mg/day, FIG. 3, controls (n=2) 3.5): 2.7
- SDQ score versus controls ([2]; 120 mg/day, at 28 days, FIG. 3): slightly higher than controls
- SDQ Means [2, 5]: 3.1174
- SDQ Means [2, 6]: 2.8485
- SDQ Means [2, 7]: 2.822
- SDQ Means [2, 8]: 2.9293
- SDQ Means ([2]; Day 28, 1x = 40 mg/day oral (n=6)): 2.5795
- SDQ Means ([2]; Day 28, 2x = 80 mg/day oral (n=6)): 2.6856
- SDQ Means ([2]; Day 28, 3x = 120 mg/day oral (n=6)): 2.6439
- SDQ Means ([2]; Day 28, all three dose groups pooled (n=18)): 2.6364
- Cohen's d value, SDQ (ANCOVA) ([2]; Day 30): 0.90
- SDQ Means [2, 9]: 2.6023
- SDQ Means [2, 10]: 2.3371
- SDQ Means [2, 11]: 2.5909
- SDQ Means [2, 12]: 2.5101
- SDQ Means [2, 13]: 2.6364
- SDQ Means [2, 14]: 2.4508
- SDQ Means [2, 15]: 2.4318
- SDQ Means [2, 16]: 2.5107
- Cohen's d value, SDQ (ANCOVA) ([2]; Day 85): 1.10
- SDQ Means ([2]; Day −5 (baseline before dosing), 1x = 40 mg/day group): 3.4508
- SDQ Means ([2]; Day −5 (baseline before dosing), 2x = 80 mg/day group): 3.2652
- SDQ Means ([2]; Day −5 (baseline before dosing), 3x = 120 mg/day group): 3.4242
- SDQ Means ([2]; Day −5 (baseline before dosing), all three dose groups pooled (n=18)): 3.3801
- CPFQ value ([3]; 40 mg/day, control group (n=2) 3.75): 2.8
- CPFQ value ([3]; 120 mg/day, controls (n=2) 3.3): 2.6
- Cohen's d value, CGI-I (ANCOVA) ([4]; 70 days): 1.13
- CGI-I Means ([4]; Day 7, 1x = 40 mg/day oral (n=6)): 3.5
- CGI-I Means ([4]; Day 7, 2x = 80 mg/day oral (n=6)): 3.8333
- CGI-I Means ([4]; Day 7, 3x = 120 mg/day oral (n=6)): 3.6667
- CGI-I Means ([4]; Day 7, all three dose groups pooled (n=18)): 3.6667
- CGI-I Means [4, 5]: 3
- CGI-I Means [4, 6]: 3.3333
- CGI-I Means [4, 7]: 3.1667
- CGI-I Means [4, 8]: 3.1667
- CGI-I Means ([4]; Day 21, 1x = 40 mg/day oral (n=6)): 2.8333
- CGI-I Means ([4]; Day 21, 2x = 80 mg/day oral (n=6)): 3.3333
- CGI-I Means ([4]; Day 21, 3x = 120 mg/day oral (n=6)): 3.3333
- CGI-I Means ([4]; Day 21, all three dose groups pooled (n=18)): 3.1667
- CGI-I value ([4]; Day 28, 40 mg/day, FIG. 1, placebo subset (n=2) 3.5): approximately 2.5
- CGI-I value ([4]; Day 28, 80 mg/day (40 mg two times daily), FIG. 1): 3
- CGI-I value versus controls ([4]; Day 28, 120 mg/day, FIG. 1): no difference from controls
- CGI-I Means ([4]; Day 29, 1x = 40 mg/day oral (n=6)): 2.5
- CGI-I Means ([4]; Day 29, 2x = 80 mg/day oral (n=6)): 2.8333
- CGI-I Means ([4]; Day 29, 3x = 120 mg/day oral (n=6)): 3.1667
- CGI-I Means ([4]; Day 29, all three dose groups pooled (n=18)): 2.8333
- Cohen's d value, CGI-I (ANCOVA) ([4]; Day 30): 0.57
- CGI-I Means ([4]; Day 35 (follow-up after 28 days dosing), 1x = 40 mg/day oral): 3.8333
- CGI-I Means ([4]; Day 35 (follow-up after 28 days dosing), 2x = 80 mg/day oral): 2.8333
- CGI-I Means ([4]; Day 35 (follow-up after 28 days dosing), 3x = 120 mg/day oral): 3
- CGI-I Means ([4]; Day 35 (follow-up after 28 days dosing), all three dose groups pooled (n=18)): 3.2222
- CGI-I Means ([4]; Day 42 (follow-up after 28 days dosing), 1x = 40 mg/day oral): 3.8333
- CGI-I Means ([4]; Day 42 (follow-up after 28 days dosing), 2x = 80 mg/day oral): 3
- CGI-I Means ([4]; Day 42 (follow-up after 28 days dosing), 3x = 120 mg/day oral): 3
- CGI-I Means ([4]; Day 42 (follow-up after 28 days dosing), all three dose groups pooled (n=18)): 3.2778
- CGI-I Means ([4]; Day 49 (follow-up after 28 days dosing), 1x = 40 mg/day oral): 3.5
- CGI-I Means ([4]; Day 49 (follow-up after 28 days dosing), 2x = 80 mg/day oral): 3.3333
- CGI-I Means ([4]; Day 49 (follow-up after 28 days dosing), 3x = 120 mg/day oral): 2.8333
- CGI-I Means ([4]; Day 49 (follow-up after 28 days dosing), all three dose groups pooled (n=18)): 3.2222
- CGI-I Means [4, 9]: 3
- CGI-I Means [4, 10]: 3
- CGI-I Means [4, 11]: 2.1667
- CGI-I Means [4, 12]: 2.7222
- CGI-I Means ([4]; Day 70 (follow-up after 28 days dosing), 1x = 40 mg/day oral): 3.6667
- CGI-I Means ([4]; Day 70 (follow-up after 28 days dosing), 2x = 80 mg/day oral): 3.5
- CGI-I Means ([4]; Day 70 (follow-up after 28 days dosing), 3x = 120 mg/day oral): 3.3333
- CGI-I Means ([4]; Day 70 (follow-up after 28 days dosing), all three dose groups pooled (n=18)): 3.5
- CGI-I Means [4, 13]: 3.3333
- CGI-I Means [4, 14]: 2.6667
- CGI-I Means [4, 15]: 2
- CGI-I Means [4, 16]: 2.7059
